Measured values published in patent publication US8501713B2, “Drug combinations for the treatment of duchenne muscular dystrophy” (Summit Corporation PLC, priority 2007, dated 2013).

System: Utrophin A promoter linked to a luciferase reporter gene
Experiment: Luciferase reporter assay (murine H2K cells)
Assay type: cell-based
Conditions: for activity at 10 µM: Mus musculus, H2K mdx, luciferase level relative to control, H2K/mdx/Utro A reporter cells, compound 10 μM final concentration, read-out: Activity; for Activity: luciferase reporter assay in murine H2K cells, classified relative to control
Method in brief: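 Compound at 10 μM final was applied for 48 hrs to plated H2K mdx myoblasts (33° C, 10% CO2, interferon-containing medium) bearing a luciferase gene under the utrophin A promoter. Luminescence from lysed cells served as read-out.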

Row | SMILES | activity at 10 µM | Activity
1 | O=C(Cc1ccccc1)Nc1ccc2oc(-c3cccnc3)nc2c1 [Example 50, 2-phenyl-N-(2-(pyridin-3-yl)benzo[d]oxazol-5-yl)acetamide] | < 200% | 
2 | O=C(CCc1ccccc1)Nc1ccc2oc(-c3cccnc3)nc2c1 [Example 51, 3-phenyl-N-(2-(pyridin-3-yl)benzo[d]oxazol-5-yl)propanamide] | < 200% | 
3 | CCC(=O)Nc1ccc2oc(-c3ccccc3)nc2c1 [Example 9, N-(2-phenylbenzo[d]oxazol-5-yl)propionamide] | 201 to 300% | 
4 | Nc1ccc2oc(-c3ccc(N4CCCC4)cc3)nc2c1 [Example 149, 2-(4-(pyrrolidin-1-yl)phenyl)benzo[d]oxazol-5-amine] | 201 to 300% | 
5 | CCC(=O)Nc1ccc(-c2nc3ccccc3s2)cc1 [Example 667] |  | ++ (Between 201% and 300% relative to control)
6 | O=[N+]([O-])c1ccc2oc(-c3ccccn3)nc2c1 [Example 171, 5-nitro-2-(pyridin-2-yl)benzo[d]oxazole] | < 200% | 
7 | NS(=O)(=O)c1ccc2oc(-c3ccc(Cl)cc3)nc2c1 [Example 325, 2-(4-chlorophenyl)benzo[d]oxazole-5-sulfonamide] | > 401% | 
8 | O=C(Nc1ccc2oc(-c3cccnc3)nc2c1)c1cc(Cl)cc(Cl)c1 [Example 47, 3,5-dichloro-N-(2-(pyridin-3-yl)benzo[d]oxazol-5-yl)benzamide] | < 200% | 
9 | Cc1ccc2nc(-c3ccc(NC(=O)c4cccnc4)cc3)sc2c1 [Example 638] |  | +++ (Between 301% and 400% relative to control)
10 | CC(C)(C)c1ccc2oc(-c3ccccc3)nc2c1 [Example 129, 5-tert-butyl-2-phenylbenzo[d]oxazole] | > 401% | 
11 | CCCCC(=O)Nc1ccc2oc(-c3ccc(C)cc3)nc2c1 [Example 117, N-(2-p-tolylbenzo[d]oxazol-5-yl)pentanamide] | 301 to 400% | 
12 | O=[N+]([O-])c1cc2oc(-c3ccc4c(c3)OCO4)nc2cc1Cl [Example 371, 2-(benzo[d][1,3]dioxol-5-yl)-5-chloro-6-nitrobenzo[d]oxazole] | 301 to 400% | 
13 | CC(C)C(=O)Nc1ccc2sc(-c3cccc(Cl)c3Cl)nc2c1 [Example 303, N-(2-(2,3-dichlorophenyl)benzo[d]thiazol-5-yl)isobutyramide] | 301 to 400% | 
14 | O=C(CC(F)(F)F)Nc1ccc2oc(-c3ccccc3)cc2c1 [Example 408, 2-phenyl-5-(3′,3′,3′-trifluoropropanamido)benzofuran] | < 200% | 
15 | Nc1ccc2oc(SCc3ccc(Cl)cc3)nc2c1 [Example 380, 2-(4-chlorobenzylthio)benzo[d]oxazol-5-amine] | < 200% | 
16 | CCS(=O)(=O)c1ccc2oc(-c3cc(C)cs3)nc2c1 [Example 443, 5-(ethylsulfonyl)-2-(4-methylthiophen-2-yl)benzo[d]oxazole] | > 401% | 
17 | O=C(Nc1ccc(-c2nc3cc(Cl)ccc3o2)cc1)c1cccs1 [Example 319, N-(4-(5-chlorobenzo[d]oxazol-2-yl)phenyl)thiophene-2-carboxamide] | < 200% | 
18 | CCCC(=O)Nc1ccc2oc(-c3cccc(N(C)C)c3)nc2c1 [Example 201, N-(2-(3-(dimethylamino)phenyl)benzo[d]oxazol-5-yl)butyramide] | < 200% | 
19 | CCN(CC)c1ccc(-c2nc3cc(NC(=O)c4ccccc4)ccc3o2)cc1 [Example 62, N-(2-(4-(diethylamino)phenyl)benzo[d]oxazol-5-yl)benzamide] | < 200% | 
20 | CCCC(=O)Nc1ccc2oc(-c3ccccc3)nc2c1 [Example 10, N-(2-phenylbenzo[d]oxazol-5-yl)butyramide] | 301 to 400% | 
21 | Cc1ccc(-c2nc3cc(Br)ccc3o2)cc1 [Example 198, 5-bromo-2-p-tolylbenzo[d]oxazole] | 301 to 400% | 

Row | SMILES | activity at 10 µM | Activity
22 | Nc1ccc2oc(-c3cnc4ccccc4c3)nc2c1 [Example 403, 2-(quinolin-3-yl)benzo[d]oxazol-5-amine] | 301 to 400% | 
23 | CC(C)C(=O)Nc1ccc2oc(SCc3ccc(Cl)cc3)nc2c1 [Example 383, N-(2-(4-chlorobenzylthio)benzo[d]oxazol-5-yl)isobutyramide] | < 200% | 
24 | O=C(Nc1ccccc1)Nc1ccc2oc(-c3ccccc3)nc2c1 [Example 240, 1-phenyl-3-(2-phenylbenzo[d]oxazol-5-yl)urea] | 301 to 400% | 
25 | Cn1c(COc2ccc(Cl)cc2)nc2ccccc21 [Example 3, 2-((4-chlorophenoxy)methyl)-1-methyl-1H-benzo[d]imidazole] | 301 to 400% | 
26 | CCCc1nc2cc(S(=O)(=O)CC)ccc2o1 [Example 571] |  | + (Up to 200% relative to control)
27 | O=C(Nc1nc2ccccc2s1)c1ccccc1Br [Example 616] |  | ++++ (Above 401% relative to control)
28 | CN(C)c1ccc(-c2nc3cc([N+](=O)[O-])ccc3[nH]2)cc1 [Example 509] |  | ++ (Between 201% and 300% relative to control)
29 | O=C(Nc1ccc2oc(-c3ccccc3)nc2c1)c1ccc(C(F)(F)F)cc1 [Example 29, N-(2-phenylbenzo[d]oxazol-5-yl)-4-(trifluoromethyl)benzamide] | < 200% | 
30 | CC(C)(C)c1ccc2oc(-c3ccc4ccccc4c3)nc2c1 [Example 451, 5-tert-Butyl-2-(naphthalen-2-yl)benzo[d]oxazole] | < 200% | 
31 | COc1ccc(-c2nc3cc(NC(=O)c4ccco4)ccc3o2)cc1 [Example 140, N-(2-(4-methoxyphenyl)benzo[d]oxazol-5-yl)furan-2-carboxamide] | < 200% | 
32 | CC(C)C(=O)Nc1ccc2oc(-c3cccc(C(F)(F)F)c3Cl)nc2c1 [Example 368, N-(2-(2-chloro-3-(trifluoromethyl)phenyl)benzo[d]oxazol-5-yl)isobutyramide] | < 200% | 
33 | CCS(=O)(=O)c1ccc2oc(-c3sccc3C)nc2c1 [Example 436, 5-(ethylsulfonyl)-2-(3-methylthiophen-2-yl)benzo[d]oxazole] | 201 to 300% | 
34 | O=C(Nc1ccc(-c2nc3ccccc3[nH]2)cc1)c1cccs1 [Example 585] |  | ++++ (Above 401% relative to control)
35 | Clc1ccc(-c2nc3cc(CN4CCCCC4)ccc3o2)cc1 [Example 469] |  | + (Up to 200% relative to control)
36 | O=C(Nc1ccc2oc(-c3ccccc3)nc2c1)c1cccc2ccccc12 [Example 35, N-(2-phenylbenzo[d]oxazol-5-yl)-1-naphthamide] | < 200% | 
37 | O=C(Nc1nc2ccccc2s1)c1cc2ccccc2o1 [Example 626] |  | ++++ (Above 401% relative to control)
38 | Cc1ccc(-c2nc3cc(-c4ccccc4)ccc3o2)cc1 [Example 161, 5-phenyl-2-p-tolylbenzo[d]oxazole] | 301 to 400% | 
39 | O=C(Nc1ccc2oc(-c3ccc(Cl)cc3)nc2c1)[C@@H]1CCCN1 [Example 362, (S)-N-(2-(4-chlorophenyl)benzo[d]oxazol-5-yl)pyrrolidine-2-carboxamide] | 201 to 300% | 
40 | O=S(=O)(O)c1ccc2oc(-c3ccc(Cl)cc3)nc2c1 [Example 312, 2-(4-chlorophenyl)benzo[d]oxazole-5-sulfonic acid] | < 200% | 
41 | CCCCc1ccc(-c2nc3ccc([N+](=O)[O-])cc3o2)nc1 [Example 262, 2-(5-butylpyridin-2-yl)-6-nitrobenzo[d]oxazole] | 201 to 300% | 
